Experimental data from patent US10633389B2, “CARM1 inhibitors and uses thereof” (Epizyme, Inc., priority 2013, dated 2020).

Tested on: asymmetric di-methyl PABP1 in RKO cells
Experiment: RKO methylation assay, In Cell Western (ICW) for asymmetric di-methyl PABP1
Type: cell-based
Conditions: Homo sapiens, RKO, Cellular potencies, ICW PABP1me2a
Procedure, shortened: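 In-cell Western on fixed RKO cells after 48 h compound exposure: anti-asymmetric di-methyl PABP1 signal at 800 nm over DRAQ5 DNA signal at 700 nm. Percent inhibition set between DMSO wells and wells with 20 μM reference compound; IC50 curves fitted in triplicate.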

| SMILES | IC50 [µM] |
| --- | --- |
| CNCC(O)COc1cccc(-c2nc(N[C@@H]3CC[C@H](O)C3)c(C)c(-c3c(C)noc3C)n2)c1 (stereo partly shown) [Example 163-1a] | < 5 |
| CNC[C@@H](O)COc1ccc(Cl)c(-c2nc(-c3c(C)noc3C)c(C)c(N3CC(CO)(CO)C3)n2)c1 [Example 163-3] | 5 to 10 |
| CNCC(O)COc1cccc(-c2nc(-c3c(C)noc3C)c(C)c(N3C[C@@H](C)O[C@@H](C)C3)n2)c1 (stereo partly shown) [Example 164-1a] | < 5 |
| CNC[C@@H](O)COc1ccc(F)c(-c2nc(-c3c(C)noc3C)c(C)c(N3Cc4cc(F)cnc4C3)n2)c1 [Example 164-3] | < 5 |
| CCS(=O)(=O)N1CCCC(CNc2nc(-c3cccc(OCC(O)CNC)c3)nc(-c3c(C)noc3C)c2C)C1 (stereo not shown) [Example 167-1a] | < 5 |
| CNC[C@@H](O)COc1ccc(Cl)c(-c2nc(N[C@@H]3CCN(C4CC4)C[C@@H]3F)c(C)c(-c3c(C)noc3C)n2)c1 [Example 167-3] | < 5 |
| CNC[C@H](O)COc1cccc(-c2nc(NC3CCN(C(=O)OC)CC3)c(C)c(-c3c(C)noc3C)n2)c1 [Example 169-1a] | < 5 |
| CNC[C@@H](O)COc1ccc(Cl)c(-c2nc(N[C@H]3CCN(C4CC4)[C@@H](C)C3)c(C)c(-c3c(C)noc3C)n2)c1 [Example 170-3] | < 5 |
| CNCC(O)COc1cccc(-c2nc(NCC3CN(C)CCO3)c(C)c(-c3c(C)noc3C)n2)c1 (stereo not shown) [Example 171-1a] | < 5 |
| Cc1noc(C)c1-c1nc(-c2cc(OC[C@H](O)CN(C)C)ccc2Cl)nc(N[C@H]2CCN(C3CC3)[C@@H](C)C2)c1C [Example 171-3] | < 5 |
| CNCC(O)COc1cccc(-c2nc(-c3c(C)noc3C)cc(N3CCN(CC(F)F)[C@H](C)C3)n2)c1 (stereo partly shown) [Example 174-1a] | < 5 |
| CNCC(O)COc1cccc(-c2nc(-c3c(C)noc3C)cc(N3CCN(C)[C@H](C)C3)n2)c1 (stereo partly shown) [Example 175-1a] | 5 to 10 |
| CNCC(O)COc1cccc(-c2nc(-c3c(C)noc3C)c(C)c(N3CCO[C@@H](CN(C)C(=O)N(C)C)C3)n2)c1 (stereo partly shown) [Example 176-1a] | < 5 |
| CNC[C@@H](O)COc1ccc(Cl)c(-c2nc(-c3c(C)noc3C)c(C)c(N3CC4(CCN(C5CC5)C4)C3)n2)c1 [Example 176-3] | < 5 |
| CNC[C@@H](O)COc1ccc(Cl)c(-c2nc(-c3c(C)noc3C)c(C)c(N3CCC4(CN(C(=O)OC)C4)C3)n2)c1 [Example 177-3] | < 5 |
| CC[C@H]1CN(c2nc(-c3cccc(OCC(O)CNC)c3)nc(-c3c(C)noc3C)c2C)CCN1C1CC1 (stereo partly shown) [Example 178-1a] | 10 to 20 |
| CNC[C@@H](O)COc1ccc(Cl)c(-c2nc(-c3c(C)noc3C)c(C)c(N3CCC4(C3)CN(C3CC3)C4)n2)c1 [Example 178-3] | < 5 |
| CNCC(O)COc1cccc(-c2nc(-c3c(C)noc3C)c(C)c(N3CCC4(CC3)CN(S(C)(=O)=O)C4)n2)c1 (stereo not shown) [Example 179-1a] | < 5 |
| CNC[C@@H](O)COc1ccc(Cl)c(-c2nc(N[C@@H]3CO[C@H](C)C3)c(Cl)c(-c3c(C)noc3C)n2)c1 [Example 180-3] | < 5 |
| CNCC(O)COc1cccc(-c2nc(OC3CCOCC3)c(C)c(-c3c(C)noc3C)n2)c1 (stereo not shown) [Example 181-1a] | < 5 |

| SMILES | IC50 [µM] |
| --- | --- |
| CNCC(O)COc1cccc(-c2nc(OCC3CCOCC3)c(C)c(-c3c(C)noc3C)n2)c1 (stereo not shown) [Example 182-1a] | < 5 |
| CNC[C@@H](O)COc1ccc(Cl)c(-c2nc(N[C@@H]3C[C@@H](C)O[C@@H](C)C3)c(C)c(-c3c(C)noc3C)n2)c1 [Example 182-3] | < 5 |
| CNC[C@@H](O)COc1ccc(Cl)c(-c2nc(N[C@@H]3C[C@@H](C)O[C@@H](C)C3)c(Cl)c(-c3c(C)noc3C)n2)c1 [Example 183-3] | < 5 |
| CNCC(O)COc1cccc(-c2nc(NCC3CCN(C(=O)OC)CC3)c(C)c(-c3c(C)noc3C)n2)c1 (stereo not shown) [Example 184-1a] | < 5 |
| CNC[C@@H](O)COc1ccc(Cl)c(-c2nc(-c3c(C)noc3C)c(C)c(N3CC(F)(F)C3)n2)c1 [Example 184-3] | < 5 |
| CNCC(O)COc1cccc(-c2nc(NC3CCN(C4CC4)CC3)c(C)c(-c3c(C)noc3C)n2)c1 (stereo not shown) [Example 185-1a] | < 5 |
| CNCC(O)COc1ccc(Cl)c(-c2nc(NC3CCN(C(=O)OC)CC3)c(Cl)c(-c3c(C)noc3C)n2)c1 (stereo not shown) [Example 187-1a] | < 5 |
| CNCC(O)COc1cccc(-c2nc(NC3CCN(CC(F)F)CC3)c(C)c(-c3c(C)noc3C)n2)c1 (stereo not shown) [Example 188-1a] | < 5 |
| CNC[C@@H](O)COc1ccc(Cl)c(-c2nc(NC3CC(F)C3)c(C)c(-c3c(C)noc3C)n2)c1 (stereo partly shown) [Example 188-3] | < 5 |
| CCOC(=O)N1CCC(Nc2nc(-c3cccc(OCC(O)CNC)c3)nc(-c3c(C)noc3C)c2C)CC1 (stereo not shown) [Example 189-1a] | < 5 |
| CNC[C@@H](O)COc1ccc(Cl)c(-c2nc(NC3CC(F)(F)C3)c(C)c(-c3c(C)noc3C)n2)c1 [Example 189-3] | < 5 |
| CCOC(=O)N1CCCC(Nc2nc(-c3cccc(OCC(O)CNC)c3)nc(-c3c(C)noc3C)c2C)C1 (stereo not shown) [Example 190-1a] | < 5 |
| CNC[C@@H](O)COc1ccc(Cl)c(-c2nc(-c3c(C)noc3C)c(C)c(N3Cc4cncnc4C3)n2)c1 [Example 190-3] | < 5 |
| CCOC(=O)N1CCC(CNc2nc(-c3cccc(OCC(O)CNC)c3)nc(-c3c(C)noc3C)c2C)CC1 (stereo not shown) [Example 191-1a] | < 5 |
| CNCC(O)COc1cccc(-c2nc(NCC3CCCN(CC(F)F)C3)c(C)c(-c3c(C)noc3C)n2)c1 (stereo not shown) [Example 193-1a] | < 5 |
| CNC[C@@H](O)COc1ccc(Cl)c(-c2nc(N[C@@H]3CCN(C)C[C@@H]3F)c(C)c(-c3c(C)noc3C)n2)c1 [Example 194-3] | < 5 |
| CNCC(O)COc1cccc(-c2nc(NC3CCN(CC(F)F)C3)c(C)c(-c3c(C)noc3C)n2)c1 (stereo not shown) [Example 195-1a] | < 5 |
| CNC[C@@H](O)COc1ccc(Cl)c(-c2nc(N[C@H]3CCN(C4CC4)C[C@H]3F)c(Cl)c(-c3c(C)noc3C)n2)c1 [Example 195-3] | < 5 |
| CCOC(=O)N1CCC(Nc2nc(-c3cccc(OCC(O)CNC)c3)nc(-c3c(C)noc3C)c2C)C1 (stereo not shown) [Example 196-1a] | < 5 |

Continued, values first:

| IC50 [µM] | SMILES |
| --- | --- |
| < 5 | CNC[C@@H](O)COc1ccc(Cl)c(-c2nc(N[C@@H]3CO[C@@H](C)C3)c(C)c(-c3c(C)noc3C)n2)c1 [Example 162-3] |
| < 5 | CNCC(O)COc1cccc(-c2nc(-c3c(C)noc3C)cc(N3CCN(n4c(C)nnc4C)CC3)n2)c1 (stereo not shown) [Example 165-1a] |
| < 5 | CNCC(O)COc1cccc(-c2nc(-c3c(C)noc3C)cc(N3CCN(C4CCOCC4)CC3)n2)c1 (stereo not shown) [Example 166-1a] |
| < 5 | CCS(=O)(=O)N1CCC(Nc2nc(-c3cccc(OCC(O)CNC)c3)nc(-c3c(C)noc3C)c2C)CC1 (stereo not shown) [Example 168-1a] |
| < 5 | CNC[C@@H](O)COc1ccc(Cl)c(-c2nc(-c3c(C)noc3C)c(Cl)c(N3Cc4cccnc4C3)n2)c1 [Example 168-3] |
| < 5 | CNC[C@@H](O)COc1ccc(Cl)c(-c2nc(N[C@H]3CCN(C(=O)OC)[C@@H](C)C3)c(C)c(-c3c(C)noc3C)n2)c1 [Example 169-3] |
| < 5 | CNC[C@@H](O)COc1cccc(-c2nc(NC3CCN(C(=O)OC)CC3)c(C)c(-c3c(C)noc3C)n2)c1 [Example 170-1a] |
| < 5 | CCOC(=O)N1CCC(N(C)c2cc(-c3c(C)noc3C)nc(-c3cccc(OCC(O)CNC)c3)n2)CC1 (stereo not shown) [Example 172-1a] |
| < 5 | CNC[C@@H](O)COc1ccc(Cl)c(-c2nc(N[C@H]3C[C@@H](C)O[C@@H](C)C3)c(C)c(-c3c(C)noc3C)n2)c1 [Example 172-3] |
| < 5 | CNC[C@@H](O)COc1ccc(Cl)c(-c2nc(N[C@H]3C[C@@H](C)O[C@@H](C)C3)c(Cl)c(-c3c(C)noc3C)n2)c1 [Example 173-3] |
| < 5 | CNC[C@@H](O)COc1ccc(Cl)c(-c2nc(-c3c(C)noc3C)c(C)c(N3CCc4ccncc43)n2)c1 [Example 174-3] |
| < 5 | CNC[C@@H](O)COc1ccc(Cl)c(-c2nc(-c3c(C)noc3C)c(C)c(N3CC4(CCN(C(=O)OC)C4)C3)n2)c1 [Example 175-3] |
| 5 to 10 | CNCC(O)COc1cccc(-c2nc(-c3c(C)noc3C)c(C)c(N3CCC[C@@H](NC)C3)n2)c1 (stereo partly shown) [Example 177-1a] |
| < 5 | CNC[C@@H](O)COc1ccc(Cl)c(-c2nc(N[C@@H]3CO[C@H](C)C3)c(C)c(-c3c(C)noc3C)n2)c1 [Example 179-3] |
| < 5 | CNC[C@@H](O)COc1ccc(Cl)c(-c2nc(N[C@@H]3CO[C@@H](C)C3)c(Cl)c(-c3c(C)noc3C)n2)c1 [Example 181-3] |
| < 5 | CNC[C@@H](O)COc1cccc(-c2nc(NCC3CCOCC3)c(C)c(-c3c(C)noc3C)n2)c1 [Example 183-1a] |
| < 5 | CNC[C@@H](O)COc1ccc(F)c(-c2nc(-c3c(C)noc3C)c(C)c(N3Cc4cc(Cl)cnc4C3)n2)c1 [Example 185-3] |
| < 5 | CNCC(O)COc1cccc(-c2nc(NC3CCN(C(=O)OC)C3)c(C)c(-c3c(C)noc3C)n2)c1 (stereo not shown) [Example 186-1a] |
| < 5 | CNC[C@@H](O)COc1ccc(Cl)c(-c2nc(-c3c(C)noc3C)c(C)c(N3C[C@H]4COC[C@H]4C3)n2)c1 [Example 186-3] |
| 10 to 20 | CNC[C@@H](O)COc1ccc(Cl)c(-c2nc(-c3c(C)noc3C)c(C)c(N3CCOC3=O)n2)c1 [Example 187-3] |
| < 5 | CCO[C@@H]1CCC[C@H]1Nc1nc(-c2cc(OC[C@H](O)CNC)ccc2F)nc(-c2c(C)noc2C)c1C [Example 191-3] |
| < 5 | CCS(=O)(=O)N1CCC(CNc2nc(-c3cccc(OCC(O)CNC)c3)nc(-c3c(C)noc3C)c2C)CC1 (stereo not shown) [Example 192-1a] |
| < 5 | CNC[C@@H](O)COc1ccc(Cl)c(-c2nc(-c3c(C)noc3C)c(C)c(N3Cc4nc(C)sc4C3)n2)c1 [Example 192-3] |
| < 5 | CCOC(=O)N1CCCC(CNc2nc(-c3cccc(OCC(O)CNC)c3)nc(-c3c(C)noc3C)c2C)C1 (stereo not shown) [Example 194-1a] |
| < 5 | CNC[C@@H](O)COc1ccc(Cl)c(-c2nc(N[C@H]3CCO[C@H](C)C3)c(C)c(-c3c(C)noc3C)n2)c1 [Example 196-3] |
